One data set relates to HBV. The experiment in a line: Anti-viral assay in HepG2.2.15 cells: HBV inhibitory activity (HBV DNA in culture medium by q-PCR). In kind it is cell-based. The following applies: Hepatitis B virus, HepG2.2.15, 144 h, HepG2.2.15 cells, 6 days treatment, HBV DNA in culture medium by q-PCR, highest concentration 10 uM; read-out: EC50. The method, boiled down: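 HepG2.2.15 cells seeded at 40,000/well in 2% FBS medium, dosed next day for 6 days (medium refreshed once midway); 8-point 3-fold dilutions from 10 uM top. HBV DNA in culture medium extracted and quantified by q-PCR; EC50 calculated from dose-response.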

Data set [1] in a line: Cytotoxicity determination in HepG2.2.15 cells (CCK-8). The following applies: human, 6 days treatment, CCK-8, highest concentration 100 uM. The format is cell-based. The method, boiled down: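 HepG2.2.15 cells seeded at 5,000 cells/well in 2% FBS medium and exposed to compounds for 6 days (medium refreshed once), 8 three-fold dilutions from 100 uM. Viability read by CCK-8 after 2.5 h at 37 °C, absorbance 450 nm with 630 nm reference; CC50 calculated.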

These results are taken from patent US11053235B2, “Substituted 1,4-dihydropyrimidines for the treatment of HBV infection or HBV-induced diseases” (Janssen Sciences Ireland Unlimited Company, priority 2018, dated 2021).

As a reminder, the EC50 is the concentration needed to bring the measured effect to its halfway point. One may read the CC50 as the concentration that lowers cell viability or growth by half. High values mean lower toxicity to the cells, low ones greater toxicity to the cells. As for `COC(=O)C1=C(C2CCN(c3ncc(C)c(C(=O)O)n3)CC2)NC(c2nccs2)=NC1c1ccc(F)c(F)c1C` (single isomer, unassigned) [II-94-B, 2-(4-(6-(3,4-Difluoro-2-methylphenyl)-5-(methoxycarbonyl)-2-(thiazol-2-yl)-3,6-dihydropyrimidin-4-yl)piperidin-1-yl)-5-methylpyrimidine-4-carboxylic Acid], in the data set on HBV, the EC50 was found to be 6.1 nM. Also, the CC50 at 6 days in data set [1] came to 26800 nM.
In the same order, the values of `CCOC(=O)C1=C([C@H]2CC[C@H](c3nc(C(=O)O)co3)CC2)NC(c2nccs2)=NC1c1ccc(F)c(F)c1Cl` (single isomer, unassigned) [Compound I-2-D, (trans)-2-(4-(6-(2-Chloro-3,4-difluorophenyl)-5-(ethoxycarbonyl)-2-(thiazol-2-yl)-3,6-dihydropyrimidin-4-yl)cyclohexyl)oxazole-4-carboxylic Acid] are 6 nM and 9370 nM.
In the same order, the values of `CCOC(=O)C1=C(C2CCN(c3ncc(C(=O)O)o3)CC2)NC(c2nccs2)=NC1c1ccc(F)c(F)c1Cl` (single isomer, unassigned) [II-50-B, 2-(4-(6-(2-Chloro-3,4-difluorophenyl)-5-(ethoxycarbonyl)-2-(thiazol-2-yl)-3,6-dihydropyrimidin-4-yl)piperidin-1-yl)oxazole-5-carboxylic Acid] are 26 nM and 19000 nM.
Turning to `CCOC(=O)Cc1ccnc(N2CCC(C3=C(C(=O)OC)C(c4ccc(F)cc4Cl)N=C(c4nccs4)N3)CC2)n1` (single isomer, unassigned) [XI-13-S, Methyl 4-(2-chloro-4-fluorophenyl)-6-(1-(4-(2-ethoxy-2-oxoethyl)pyrimidin-2-yl)piperidin-4-yl)-2-(thiazol-2-yl)-1,4-dihydropyrimidine-5-carboxylate], in the data set with HBV, the concentration giving a half-maximal response (EC50) was 150 nM. In addition, the CC50 at 6 days in data set [1] is over 100000 nM.
For `CCOC(=O)C1=C(C2CCN(c3cc(C(=O)O)ccn3)CC2)NC(c2nccs2)=NC1c1ccc(F)c(F)c1Cl` (single isomer, unassigned) [II-41-B, 2-(4-(6-(2-Chloro-3,4-difluorophenyl)-5-(ethoxycarbonyl)-2-(thiazol-2-yl)-3,6-dihydropyrimidin-4-yl)piperidin-1-yl)isonicotinic Acid], the EC50 in the data set on HBV turned out to be 5.2 nM. This compound returned a half-maximal cytotoxic concentration (CC50) at 6 days in data set [1] of 10200 nM.
For `CCOC(=O)C1=C([C@H]2CC[C@H](c3cn(CCC(=O)O)nc3C)CC2)NC(c2nccs2)=NC1c1ccc(F)c(F)c1Cl` (single isomer, unassigned) [Compound I-33-C, (trans)-3-(4-(4-(6-(2-Chloro-3,4-difluorophenyl)-5-(ethoxycarbonyl)-2-(thiazol-2-yl)-3,6-dihydropyrimidin-4-yl)cyclohexyl)-3-methyl-1H-pyrazol-1-yl)propanoic Acid] the same measures were 7.2 nM and 2970 nM.
Turning to `COC(=O)C1=C(C2CCN(c3ncc(N(C)C)c(C(=O)O)n3)CC2)NC(c2nccs2)=NC1c1ccc(F)c(F)c1Cl` (single isomer, unassigned) [II-91-B, 2-(4-(6-(2-chloro-3,4-difluorophenyl)-5-(methoxycarbonyl)-2-(thiazol-2-yl)-3,6-dihydropyrimidin-4-yl)piperidin-1-yl)-5-(dimethylamino)pyrimidine-4-carboxylic Acid], the 50% effective concentration (EC50) in the data set on HBV turned out to be 12 nM. For the same compound, in data set [1], the cytotoxic concentration (CC50) at 6 days was 26100 nM.
For `COC(=O)C1=C([C@H]2CC[C@H](c3ncc(CC(=O)O)cn3)CC2)NC(c2nccs2)=NC1c1ccc(F)c(F)c1Cl` (single isomer, unassigned) [Compound I-49-A, 2-(2-((trans)-4-(6-(2-chloro-3,4-difluorophenyl)-5-(methoxycarbonyl)-2-(thiazol-2-yl)-3,6-dihydropyrimidin-4-yl)cyclohexyl)pyrimidin-5-yl)acetic Acid] the same measures were 11 nM and 24700 nM.
